In the NIST ThermoML archive (doi:10.1021/acs.jced.5b00802):

Legend:
[1] = xn = mol fraction of the nth substance listed; details: 100 kPa, Liquid; for speed of sound: Frequency=3 MHz, Sing-around technique in a fixed-path interferometer; for mass density: Vibrating tube method
[2] = refractive index (Na D-line) (dimensionless); xn = mol fraction of the nth substance listed; details: 100 kPa, Liquid, Standard Abbe refractometry

CCCCN [1-butanamine] + CN(C)C=O
Details | mass density, [1] [kg/m3] | refractive index, [2] | speed of sound, [1] [m/s]
293.15 K, x2 = 0.0599 | 747.39 | 1.40222 | 1277.7
293.15 K, x2 = 0.1056 | 755.445 | 1.40348 | 1285
293.15 K, x2 = 0.1591 | 765.035 | 1.40498 | 1293.8
293.15 K, x2 = 0.201 | – | 1.40619 | –
293.15 K, x2 = 0.2505 | 782.005 | 1.4076 | 1309.6
293.15 K, x2 = 0.3017 | 791.811 | 1.40911 | 1318.9
293.15 K, x2 = 0.3583 | 802.88 | 1.41079 | 1329.6
293.15 K, x2 = 0.3992 | 811.114 | 1.412 | 1337.8
293.15 K, x2 = 0.4401 | – | 1.41322 | –
293.15 K, x2 = 0.5059 | 833.13 | 1.41521 | 1359.6
293.15 K, x2 = 0.5483 | 842.154 | – | 1368.9
293.15 K, x2 = 0.6043 | – | 1.41829 | –
293.15 K, x2 = 0.6569 | 866.102 | 1.41992 | 1393.7
293.15 K, x2 = 0.6999 | 875.844 | 1.42126 | 1404
293.15 K, x2 = 0.7537 | 888.314 | 1.42292 | 1416.7
293.15 K, x2 = 0.8036 | 900.101 | 1.42448 | 1429
293.15 K, x2 = 0.8579 | 913.315 | 1.42618 | 1442.3
293.15 K, x2 = 0.9048 | 924.751 | 1.42763 | 1453.7
293.15 K, x2 = 0.9546 | 937.212 | 1.42915 | 1465.6
298.15 K, x2 = 0.0575 | 742.224 | 1.39946 | 1255.4
298.15 K, x2 = 0.1092 | 751.333 | 1.40093 | 1263.9
298.15 K, x2 = 0.1519 | 759.015 | 1.40215 | 1271.1
298.15 K, x2 = 0.2043 | 768.674 | 1.40367 | 1280.1
298.15 K, x2 = 0.2448 | 776.215 | 1.40485 | 1287.4
298.15 K, x2 = 0.309 | 788.51 | 1.4068 | 1299.3
298.15 K, x2 = 0.3558 | 797.705 | 1.4082 | 1308.4
298.15 K, x2 = 0.3986 | 806.285 | – | 1317
298.15 K, x2 = 0.4381 | 814.268 | – | 1324.9
298.15 K, x2 = 0.5028 | 827.736 | 1.41274 | 1338.6
298.15 K, x2 = 0.6005 | 848.795 | 1.41578 | 1360.6
298.15 K, x2 = 0.6608 | – | 1.41769 | –
298.15 K, x2 = 0.6934 | 869.781 | 1.41871 | 1382.5
298.15 K, x2 = 0.7572 | 884.516 | 1.42076 | 1398
298.15 K, x2 = 0.8056 | 895.958 | 1.4223 | 1410
298.15 K, x2 = 0.8546 | – | 1.42383 | –
298.15 K, x2 = 0.9076 | 920.837 | 1.42553 | 1435.1
298.15 K, x2 = 0.9553 | 932.723 | 1.42705 | 1446.6
303.15 K, x2 = 0.0505 | 736.213 | 1.39644 | 1233
303.15 K, x2 = 0.1477 | 753.539 | 1.39927 | 1249.4
303.15 K, x2 = 0.2019 | 763.466 | 1.40087 | 1259
303.15 K, x2 = 0.241 | 770.708 | 1.40209 | 1266
303.15 K, x2 = 0.3024 | 782.423 | 1.40392 | 1277.5
303.15 K, x2 = 0.3558 | 792.882 | 1.40552 | 1287.8
303.15 K, x2 = 0.3992 | – | 1.40686 | –
303.15 K, x2 = 0.4358 | 808.96 | 1.40802 | 1304.1
303.15 K, x2 = 0.5114 | 824.673 | 1.41041 | 1320.3
303.15 K, x2 = 0.5281 | 828.281 | 1.41094 | 1324
303.15 K, x2 = 0.6056 | 845.104 | 1.41337 | 1341.6
303.15 K, x2 = 0.6574 | – | 1.41502 | –
303.15 K, x2 = 0.696 | 865.473 | 1.41625 | 1363.2
303.15 K, x2 = 0.7558 | 879.286 | 1.4182 | 1377.7
303.15 K, x2 = 0.8006 | 889.962 | 1.41964 | 1389
303.15 K, x2 = 0.8544 | 902.88 | 1.42138 | 1402.3
303.15 K, x2 = 0.8998 | 914.033 | 1.42282 | 1413.7
303.15 K, x2 = 0.9466 | 925.732 | 1.42431 | 1425.2

CCCNCCC [dipropylamine] + CN(C)C=O
Details | mass density, [1] [kg/m3] | refractive index, [2] | speed of sound, [1] [m/s]
293.15 K, x2 = 0.06 | 745.894 | 1.40543 | 1218.2
293.15 K, x2 = 0.1071 | 752.141 | – | 1225
293.15 K, x2 = 0.1556 | – | 1.40725 | –
293.15 K, x2 = 0.156 | 758.933 | – | 1232.9
293.15 K, x2 = 0.1975 | 764.87 | – | 1239.3
293.15 K, x2 = 0.249 | 772.54 | – | 1248.1
293.15 K, x2 = 0.2614 | – | 1.40952 | –
293.15 K, x2 = 0.3099 | 782.194 | – | 1259.4
293.15 K, x2 = 0.3463 | 788.151 | 1.4114 | 1266.2
293.15 K, x2 = 0.3985 | 797.199 | 1.41266 | 1276.9
293.15 K, x2 = 0.448 | 806.192 | – | 1287.6
293.15 K, x2 = 0.4554 | – | 1.41402 | –
293.15 K, x2 = 0.4974 | 815.656 | – | 1299.2
293.15 K, x2 = 0.5487 | 825.989 | 1.41645 | 1312
293.15 K, x2 = 0.6018 | – | 1.41789 | –
293.15 K, x2 = 0.6562 | 849.651 | – | 1342.1
293.15 K, x2 = 0.7033 | – | 1.42079 | –
293.15 K, x2 = 0.7514 | 873.097 | – | 1373.4
293.15 K, x2 = 0.8216 | 892.212 | 1.42444 | 1399.8
293.15 K, x2 = 0.8501 | 900.523 | – | 1411.2
293.15 K, x2 = 0.8844 | – | 1.42653 | –
293.15 K, x2 = 0.9025 | 916.508 | – | 1433.3
293.15 K, x2 = 0.9486 | 931.283 | 1.42882 | 1453.4
298.15 K, x2 = 0.0626 | 741.577 | 1.40259 | 1196.9
298.15 K, x2 = 0.1083 | 747.697 | 1.40358 | 1204
298.15 K, x2 = 0.1544 | 754.025 | 1.40443 | 1211.2
298.15 K, x2 = 0.2541 | 768.732 | 1.40662 | 1228.1
298.15 K, x2 = 0.3148 | 778.293 | 1.40796 | 1239.3
298.15 K, x2 = 0.3609 | 786.012 | 1.40908 | 1248.3
298.15 K, x2 = 0.4077 | 794.223 | 1.41017 | 1258.2
298.15 K, x2 = 0.4966 | 810.8 | 1.41247 | 1278.5
298.15 K, x2 = 0.5386 | 819.199 | – | 1288.9
298.15 K, x2 = 0.6082 | 833.997 | – | 1307.9
298.15 K, x2 = 0.6527 | 844.084 | 1.41673 | 1321.1
298.15 K, x2 = 0.7477 | 867.448 | 1.4196 | 1352.4
298.15 K, x2 = 0.8063 | 883.226 | 1.42147 | 1374
298.15 K, x2 = 0.902 | 911.457 | 1.42478 | 1413.1
298.15 K, x2 = 0.9482 | 926.367 | 1.42645 | 1433.5
303.15 K, x2 = 0.0453 | 734.885 | 1.39971 | 1174
303.15 K, x2 = 0.1034 | 742.55 | 1.40091 | 1183
303.15 K, x2 = 0.1963 | 755.529 | 1.40293 | 1198
303.15 K, x2 = 0.2582 | 764.775 | 1.40419 | 1208.8
303.15 K, x2 = 0.3559 | 780.614 | 1.40647 | 1227.6
303.15 K, x2 = 0.4099 | 790.03 | 1.40779 | 1239
303.15 K, x2 = 0.4565 | 798.539 | – | 1249.4
303.15 K, x2 = 0.5415 | 815.193 | – | 1270.3
303.15 K, x2 = 0.6016 | 827.909 | 1.41295 | 1286.6
303.15 K, x2 = 0.6517 | 839.209 | – | 1301.4
303.15 K, x2 = 0.7502 | 863.388 | 1.41745 | 1334
303.15 K, x2 = 0.8498 | 890.941 | 1.4207 | 1372
303.15 K, x2 = 0.9 | 906.165 | 1.42246 | 1393.2
303.15 K, x2 = 0.9498 | 922.203 | 1.42417 | 1415.2
